Measured values from ChEMBL document CHEMBL1909046, “DrugMatrix in vitro pharmacology data”.

Key:
Calcitonin receptor = target: T1, Calcitonin receptor (Homo sapiens, UniProt P30988); assay type: cell membranes, Membrane; details: t47d
T1 sequence (P30988 whole entry): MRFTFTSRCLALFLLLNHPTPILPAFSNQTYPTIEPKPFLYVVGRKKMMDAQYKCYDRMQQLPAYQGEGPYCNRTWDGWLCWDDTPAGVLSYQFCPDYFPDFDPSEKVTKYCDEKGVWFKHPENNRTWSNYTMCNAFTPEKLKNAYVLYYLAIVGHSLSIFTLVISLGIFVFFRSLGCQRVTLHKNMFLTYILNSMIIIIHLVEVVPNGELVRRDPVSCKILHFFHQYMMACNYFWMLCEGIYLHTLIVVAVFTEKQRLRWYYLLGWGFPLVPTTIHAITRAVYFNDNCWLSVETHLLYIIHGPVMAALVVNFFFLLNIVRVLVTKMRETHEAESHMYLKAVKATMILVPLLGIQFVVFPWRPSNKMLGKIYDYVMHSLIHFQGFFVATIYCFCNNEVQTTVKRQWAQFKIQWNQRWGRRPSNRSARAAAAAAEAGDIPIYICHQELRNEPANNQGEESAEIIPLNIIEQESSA

[1] = target: Matrix metalloproteinase-9 (Homo sapiens, UniProt P14780); assay type: cell-based;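 also: inhibition of isolated MMP-9 enzyme activity toward a synthetic peptide substrate, from the DrugMatrix protease screening panel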
Caspase-1 = target: T2, Caspase-1 (Homo sapiens, UniProt P29466); design: species or system Escherichia coli;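 also: Caspase-1 enzyme inhibition assay with a peptide substrate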
T2 sequence (P29466 whole entry): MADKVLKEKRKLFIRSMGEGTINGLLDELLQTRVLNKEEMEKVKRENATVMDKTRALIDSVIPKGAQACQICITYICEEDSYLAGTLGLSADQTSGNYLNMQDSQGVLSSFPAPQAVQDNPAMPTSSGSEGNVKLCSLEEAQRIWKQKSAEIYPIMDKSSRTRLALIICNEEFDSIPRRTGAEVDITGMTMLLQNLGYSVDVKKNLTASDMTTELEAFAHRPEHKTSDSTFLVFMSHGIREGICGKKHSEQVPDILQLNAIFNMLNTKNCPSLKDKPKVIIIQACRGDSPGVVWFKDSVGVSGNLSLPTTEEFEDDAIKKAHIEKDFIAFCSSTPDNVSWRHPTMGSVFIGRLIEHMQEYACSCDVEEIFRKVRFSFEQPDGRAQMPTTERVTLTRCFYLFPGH

[2] = target: T3, Muscarinic acetylcholine receptor M4 (Homo sapiens, UniProt P08173); assay type: cell membranes, CHO-K1, Membrane; details: cho-k1
T3 sequence (P08173 whole entry): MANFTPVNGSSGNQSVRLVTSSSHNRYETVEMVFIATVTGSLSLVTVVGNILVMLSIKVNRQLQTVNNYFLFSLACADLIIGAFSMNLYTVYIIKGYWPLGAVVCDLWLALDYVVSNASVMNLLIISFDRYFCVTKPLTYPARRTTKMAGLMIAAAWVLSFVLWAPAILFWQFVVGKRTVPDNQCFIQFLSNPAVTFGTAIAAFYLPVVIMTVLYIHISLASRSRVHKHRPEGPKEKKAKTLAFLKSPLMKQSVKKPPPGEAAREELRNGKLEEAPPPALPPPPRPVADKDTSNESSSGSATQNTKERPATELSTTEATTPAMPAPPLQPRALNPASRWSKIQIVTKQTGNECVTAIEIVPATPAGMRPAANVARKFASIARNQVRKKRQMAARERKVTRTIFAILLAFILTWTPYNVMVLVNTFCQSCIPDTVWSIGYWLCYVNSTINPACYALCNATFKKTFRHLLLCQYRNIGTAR

Leukotriene C4 synthase = target: T4, Leukotriene C4 synthase (Cavia porcellus, UniProt A6XA80); assay type: tissue-based, Lung;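 also: enzyme inhibition assay of leukotriene C4 synthase, using LTA4 as the substrate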
T4 sequence (A6XA80 whole entry): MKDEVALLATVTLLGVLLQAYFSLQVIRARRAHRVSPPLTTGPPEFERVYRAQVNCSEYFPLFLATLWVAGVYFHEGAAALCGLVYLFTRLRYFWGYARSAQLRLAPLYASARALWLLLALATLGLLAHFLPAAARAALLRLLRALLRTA

Melanocortin receptor 5 = Melanocortin receptor 5 (Homo sapiens, UniProt P33032); assay type: cell membranes, HEK293, Membrane; details: hek293
[3] = target: Tyrosine-protein kinase Fyn (Homo sapiens, UniProt P06241); experiment: biochemical; assay type: cell-based, Insect cells; details: insect cells;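 also: enzymatic inhibition of Fyn kinase activity measured with Poly(Glu:Tyr) as the phosphorylation substrate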

Measured: IC50
Also: in other assays of this panel Not Active means under 50% inhibition at 10 µM.

Chain of Melanocortin receptor 5 (P33032 whole entry): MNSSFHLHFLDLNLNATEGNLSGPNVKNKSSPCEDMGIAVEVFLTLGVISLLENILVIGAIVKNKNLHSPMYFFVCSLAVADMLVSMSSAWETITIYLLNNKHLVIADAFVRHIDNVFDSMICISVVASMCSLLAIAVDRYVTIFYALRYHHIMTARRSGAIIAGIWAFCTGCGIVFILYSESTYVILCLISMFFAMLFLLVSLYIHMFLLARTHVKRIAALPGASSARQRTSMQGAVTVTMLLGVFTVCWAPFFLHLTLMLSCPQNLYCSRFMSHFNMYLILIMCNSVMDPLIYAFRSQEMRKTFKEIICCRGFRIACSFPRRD
Chain of Tyrosine-protein kinase Fyn (P06241 whole entry): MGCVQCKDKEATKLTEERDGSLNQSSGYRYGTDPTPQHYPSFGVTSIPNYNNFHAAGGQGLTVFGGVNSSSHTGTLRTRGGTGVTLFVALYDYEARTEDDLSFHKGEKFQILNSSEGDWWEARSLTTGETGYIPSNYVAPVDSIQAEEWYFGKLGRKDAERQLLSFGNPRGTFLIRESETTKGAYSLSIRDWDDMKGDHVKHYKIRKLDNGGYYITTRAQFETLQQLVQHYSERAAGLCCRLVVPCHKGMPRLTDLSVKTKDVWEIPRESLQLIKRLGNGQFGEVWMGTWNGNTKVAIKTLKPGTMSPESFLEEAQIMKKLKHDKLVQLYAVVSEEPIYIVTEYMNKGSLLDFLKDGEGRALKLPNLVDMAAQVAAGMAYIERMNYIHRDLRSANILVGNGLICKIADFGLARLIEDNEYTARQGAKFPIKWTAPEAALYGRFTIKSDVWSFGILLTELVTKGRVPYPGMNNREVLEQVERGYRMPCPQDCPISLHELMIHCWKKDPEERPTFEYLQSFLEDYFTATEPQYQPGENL
Chain of Matrix metalloproteinase-9 (P14780 whole entry): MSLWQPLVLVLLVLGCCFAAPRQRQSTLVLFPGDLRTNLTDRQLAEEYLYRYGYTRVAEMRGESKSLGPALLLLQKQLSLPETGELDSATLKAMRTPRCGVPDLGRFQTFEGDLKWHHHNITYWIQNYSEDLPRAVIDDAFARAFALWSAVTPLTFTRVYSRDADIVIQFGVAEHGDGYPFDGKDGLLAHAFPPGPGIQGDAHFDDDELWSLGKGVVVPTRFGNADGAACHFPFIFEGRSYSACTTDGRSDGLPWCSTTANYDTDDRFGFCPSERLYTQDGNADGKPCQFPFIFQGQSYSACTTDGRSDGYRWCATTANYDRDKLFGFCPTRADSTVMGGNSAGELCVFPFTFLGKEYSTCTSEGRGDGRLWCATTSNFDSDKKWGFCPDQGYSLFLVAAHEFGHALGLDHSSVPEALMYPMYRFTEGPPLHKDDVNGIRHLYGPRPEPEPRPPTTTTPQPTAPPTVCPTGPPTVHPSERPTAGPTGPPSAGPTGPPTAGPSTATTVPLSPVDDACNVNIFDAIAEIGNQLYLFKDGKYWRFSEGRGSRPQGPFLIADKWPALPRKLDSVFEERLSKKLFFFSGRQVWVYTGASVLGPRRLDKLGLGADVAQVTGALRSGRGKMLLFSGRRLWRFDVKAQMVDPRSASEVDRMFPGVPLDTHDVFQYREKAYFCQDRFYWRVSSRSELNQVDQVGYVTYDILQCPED

CC(C)c1c(C(=O)Nc2ccccc2)c(-c2ccccc2)c(-c2ccc(F)cc2)n1CC[C@@H](O)C[C@@H](O)CC(=O)O [ATORVASTATIN]
Not Active: all assays above

CC(=O)OC[C@H]1O[C@@H](n2ncc(=O)[nH]c2=O)[C@H](OC(C)=O)[C@@H]1OC(C)=O [AZARIBINE]
Not Active: all assays above

C[C@H]1[C@H](NC(=O)/C(=N\OC(C)(C)C(=O)O)c2csc(N)n2)C(=O)N1S(=O)(=O)O [AZTREONAM]
Not Active: all assays above

O=C(O)CCNC(=O)c1ccc(/N=N/c2ccc(O)c(C(=O)O)c2)cc1 [BALSALAZIDE]
Not Active: all assays above

COc1cc(OC)c(C(=O)CCCN2CCCC2)c(OC)c1 [BUFLOMEDIL]
Not Active: all assays above

Cn1c(=O)c2c(ncn2C)n(C)c1=O [CAFFEINE]
Not Active: all assays above

ClC(Cl)(Cl)Cl [CARBON TETRACHLORIDE]
Not Active: all assays above

CO/N=C(\C(=O)N[C@@H]1C(=O)N2C(C(=O)O)=C(COC(C)=O)CS[C@H]12)c1csc(N)n1 [CEFOTAXIME]
Not Active: all assays above

CNC1=Nc2ccc(Cl)cc2C(c2ccccc2)=[N+]([O-])C1 [CHLORDIAZEPOXIDE]
Not Active: all assays above

Cc1cc(O)cc(C)c1Cl [CHLOROXYLENOL]
Not Active: all assays above

CCCNC(=O)NS(=O)(=O)c1ccc(Cl)cc1 [CHLORPROPAMIDE]
Not Active: all assays above

NS(=O)(=O)c1cc(C2(O)NC(=O)c3ccccc32)ccc1Cl (stereo unspecified) [CHLORTHALIDONE]
Not Active: all assays above

O=C(O)CC(O)(CC(=O)O)C(=O)O [CITRIC ACID]
Not Active: all assays above
